Source: US12466814B2, “Sterically shielded heptamethine cyanine dyes” (UNIVERSITY OF NOTRE DAME DU LAC, priority 2020, dated 2025)
Where two headings read alike, the source gives them in different places. Marks after values point to notes of the source that are not given here.

Legend:
[1] = Quantum yield and fluorescence brightness relative to UL766; format: physicochemical; details: for Brightness (fluorescence brightness = ε × QY): PBS pH 7.4, error ±15%; for Quantum yield: pH 7.4 PBS, relative to UL766, error ±10%
Source text: The fluorescence spectrum of each solution was obtained with excitation at 730 nm, and the integrated area was used in the quantum yield calculation by the following equation:
[formula] where η is the refractive index of the solvent, I is the integrated fluorescence intensity, and A is the absorbance at a chosen wavelength. […]

[2] = tested on: integrin positive A549 cells; experiment: Cell uptake by fluorescence microscopy; format: cell-based, human
Experimental: FIG. 19. […] The two targeted dyes contain a cyclic peptide cRGDfK sequence for targeting the overexpressed cell surface integrin receptors. The blocking experiments added 100 μM of free cRGDfK prior to the incubation with RGD probes. NIR heptamethine fluorescence is shown in green, and Hoechst nuclear stain is shown in blue. Scale bar=30 μm. (c) Quantification of intracellular mean fluorescence intensities as a measure of NIR dye internalization (6 micrographs per condition and 3 replicates). * indicates p<0.05, and ** p<0.01.
Cell Microscopy. For fluorescence microscopy, A549 cells were seeded and grown to 70% confluency on an 8-well chambered coverglass (Lab-Tek, Nunc, USA). […] For blocking, 100 μM of cRGDfK was added to the cells, 10 min prior to dye treatment and remained present during NIR dye incubation. After dye incubation, the cells were washed several times with PBS, fixed with 4% cold paraformaldehyde for 20 min at room temperature and washed again with PBS. […] Next, a triangle threshold was employed and used to calculate the average mean pixel intensity (MPI) where overall averages and SEM were calculated and plotted in GraphPad Prism. A total of 6 micrographs were evaluated per condition and each experiment was conducted in triplicate.

[3] = Absorption and emission spectral properties of dyes; format: physicochemical; details: for ε: monomer band
Experimental: General. Reagents and solvents were purchased from Sigma-Aldrich, VWR, Oakwood, Thermo Fisher and TCI and used without further purification unless stated otherwise. Anhydrous tetrahydrofuran was distilled with metal sodium and benzophenone. Column chromatography was performed using Biotage SNAP Ultra columns. ^1H, ^13C and ROESY NMR spectra were recorded on a Bruker 500 NMR spectrometer. Chemical shifts are presented in ppm and referenced by residual solvent peak. High-resolution mass spectrometry (HRMS) was performed using a time-of-flight (TOF) analyzer with electrospray ionization (ESI). Absorption spectra were recorded on an Evolution 201 UV/vis spectrometer with Thermo Insight software. Fluorescence spectra were collected on a Horiba Fluoromax-4 fluorometer with FluoroEssence software. Analyte solutions were prepared in HPLC grade water (Sigma-Aldrich), phosphate buffered saline (Thermo Fisher), fetal bovine serum (Sigma-Aldrich) or buffer B (575 mM NaCl, 37.5 mM NaH2PO4 and 0.75 mM EDTA in water, pH 7.5). All absorption and fluorescence spectra were collected using quartz cuvettes (1 mL, 1 cm path length; for emission and excitation spectra, slit width=3 nm).

[4] = Dye self-aggregation by absorption/excitation spectra; format: physicochemical; details: in water / aqueous media, absorption spectra
Source text: Self-aggregation of heptamethine cyanine dyes is readily indicated by conversion of monomer absorption bands into aggregate bands, in this case blue-shifted H-aggregates.

[5] = tested on: subcutaneous tumor (human A549 cells); experiment: Mouse tumor imaging; format: in vivo, nude mice; details: A549 tumor mice, 10 nmol
Experimental: […]. The fluorescence mean pixel intensity (MPI) of two regions of interest (equal sizes) on the fluorescent images (tumor or background site on the opposite flank), at different post-injection time points, were measured using ImageJ2 software and used to calculate values for Tumor MPI, and Tumor-to-Background Ratio. * indicates p<0.05, ** p<0.01, and *** p<0.001.
Mouse Tumor Imaging. All animal experiments were conducted under protocols that were approved by the Notre Dame Institutional Animal Care and Use Committee. Female Foxn1 nude mice (N=8) were inoculated with A549 cells (1×10^6) in Corning Matrigel matrix on the right rear flank. […]. The mice were then injected with dye and imaged at 0, 0.5, 1, 2, and 3 hr. At 3 hr, the mice were anesthetized and sacrificed via cervical dislocation, and blood was collected from the heart. To simulate a surgery, the mice were imaged prior to surgery, the fluorescent tumor was fully removed, and the mice were imaged again. […] For image processing, the whole body and tumor images were pseudocolored “fire,” and an arbitrary maximum fluorescence value was chosen. Biodistribution analysis was performed by importing NIR fluorescence images of the excised organs from each mouse into ImageJ2 and the amount of dye in each organ was quantified by manually drawing a region of interest around each organ and determining the fluorescence MPI. […]

[6] = known from literature; cited from earlier work
[7] = cited from earlier work; for QY / Brightness (fluorescence brightness = ε × QY): PBS pH 7.4; for QY: data from reference; for Brightness (fluorescence brightness = ε × QY) / Quantum yield: reported data; for Quantum yield: pH 7.4 PBS
[8] = PBS pH 7.4, cited from earlier work; for ε: reported data; for λabs max / λem max: spectral data from reference
[9] = meso linkage is not cleaved by biological amines or thiols; cited from earlier work
[10] = Photostability, Xenon lamp irradiation; format: physicochemical
Experimental: FIG. 2. Two separate photostability studies. (a) Lamp irradiation: Four separate cuvettes, each containing 1 μM dye in PBS buffer, pH 7.4, were irradiated by a 150 W Xenon lamp with a 620 nm long-pass filter. The plot of normalized dye absorbance versus time was fit to a one-phase exponential decay. […] The length scale bar on each NIR fluorescence image is 1 cm.
Photostability Measurements. Lamp Irradiation: A solution of dye (1 μM) in PBS buffer, pH 7.4, was placed in a 1×1×4 cm^3 cuvette that was exposed to air and irradiated at a distance of 3 cm by a 150 W Xenon lamp with a 620 nm long-pass filter. An absorbance spectrum was recorded every 10 min. The normalized maximum absorbance of dye was plotted against time and fitted to a non-linear regression, one-phase exponential decay. […] A 1.5 mL vial containing the solution was irradiated at a distance of 3 cm by a 150 W Xenon lamp with a 620 nm long-pass filter.

[11] = Mouse biodistribution in normal mice; format: in vivo, SKH1 hairless mice; details: 10 nmol
Source text: FIG. 20. a) Representative whole-body NIR fluorescence images of living SKH1 hairless mice at 0, 1, and 2 hr after intravenous injection of either ICG or s775z (10 nmol). b) In vivo biodistribution of s775z and ICG in normal mice. The SKH1 hairless mice (N=4) received an intravenous injection of ICG or s775z (10 nmol) and were sacrificed after 2 hr. The mean pixel intensity (MPI) for each excised organ is relative to the MPI for thigh muscle from the same animal; error bars indicate ±SEM. * indicates p<0.05. Note: the y-axis is truncated.
Mouse Biodistribution. All animal experiments were conducted under protocols that were approved by the Notre Dame Institutional Animal Care and Use Committee. Female SKH1 hairless mice (N=4) were divided into two cohorts and received a retro-orbital injection of ICG or s775z (50 μL, 10 nmol). […] The mice were then injected with dye and imaged at 0, 1, and 2 hr. At 2 hr, the mice were anesthetized, sacrificed via cervical dislocation, and blood was collected from the heart. The lower cavity of the mice was then exposed and imaged. […] The images were pseduocolored “fire,” and an arbitrary maximum fluorescence value was chosen. […] The amount of dye was then quantified by manually drawing a region of interest around each organ. The MPI of each organ was measured and divided by the MPI for thigh muscle from the same animal.

Row | SMILES | Brightness (fluorescence brightness = ε × QY) [1] | Quantum yield [1] | ε ([3]; PBS pH 7.4, room temperature) | Change in serum under very similar conditions [6] | QY [7] | Brightness (fluorescence brightness = ε × QY) [7] | Quantum yield [7] | ε [8] | λabs max [8] | λem max [8] | Stable to nucleophiles [9] | also measured
1 | CC1(C)C(/C=C/C2=C(c3ccc(C(=O)NCCCC[C@@H]4NC(=O)[C@@H](Cc5ccccc5)NC(=O)[C@H](CC(=O)O)NC(=O)CNC(=O)[C@H](CCCNC(=N)N)NC4=O)cc3)C(=C/C=C3/N(CCC[N+](C)(C)C)c4ccc(S(=O)(=O)O)cc4C3(C)C)/CCC2)=[N+](CCC[N+](C)(C)C)c2ccc(S(=O)(=O)O)cc21 [Dye 756z-RGD] | 16,000 | 10.7^[b] % | 147,000 M^−1cm^−1 |  |  |  |  |  |  |  |  | Cell uptake with blocking ([2]; A549 cells pre-incubated with excess (100 μM) cRGDfK): successfully blocked; Cell uptake ([2]; A549 cells, 10 μM dye, 1 hr, 37° C.): much higher cell uptake; SS (Stokes shift) ([3]; PBS pH 7.4): 16 nm; λabs max, aggregate (a) band ([3]; PBS pH 7.4, room temperature): 682 (a)/ nm; λem max ([3]; PBS pH 7.4, room temperature): 773 nm; λabs max ([3]; PBS pH 7.4, room temperature, monomer (m) band where an aggregate band is also listed): 757 (m) nm; Aggregation state [4]: concentration-dependent mixture of fluorescent monomer and non-fluorescent H-aggregate
2 | COCCOCCOCCOCc1cn(Cc2cc(C(=O)NCCCC[C@@H]3NC(=O)[C@@H](Cc4ccccc4)NC(=O)[C@H](CC(=O)O)NC(=O)CNC(=O)[C@H](CCCNC(=N)N)NC3=O)cc(Cn3cc(COCCOCCOCCOC)nn3)c2C(=C\C=C\C2=[N+](CCC[N+](C)(C)C)c3ccc(S(=O)(=O)O)cc3C2(C)C)/C=C/C=C2/N(CCC[N+](C)(C)C)c3ccc(S(=O)(=O)O)cc3C2(C)C)nn1 [s775z-RGD] |  |  |  |  |  |  |  |  |  |  |  | Clearance and background retention [5]: rapid, near-exclusive renal clearance from the bloodstream
3 | CC1(C)C(/C=C/C2=C(Oc3ccc(S(=O)(=O)O)cc3)C(=C/C=C3/N(CCCCS(=O)(=O)O)c4ccc(S(=O)(=O)[O-])cc4C3(C)C)/CCC2)=[N+](CCCCCC(=O)O)c2ccc(S(=O)(=O)O)cc21 [CW800] |  |  |  | degradation | 0.090 | 22,000 | 9.0% | 242,000 M^−1cm^−1 | 775 nm | 796 nm | No | 
4 | CC1(C)C(/C=C/C=C/C=C/C=C2\N(CCCCS(=O)(=O)O)c3ccc4ccccc4c3C2(C)C)=[N+](CCCCS(=O)(=O)[O-])c2ccc3ccccc3c21 [ICG, Indocyanine Green] | 1,600 | 2.3^[b] % | 71,000 M^−1cm^−1 |  |  |  |  |  |  |  |  | half-life at 1 μM ([10]; PBS buffer in a cuvette exposed to air, pH 7.4 PBS, 150 W Xenon lamp irradiation, 620 nm long-pass filter, 23° C., 1 μM dye, read-out: t1/2, half-life of first-order decay (converted)): 13.3 min; k, rate constant of first-order decay ([10]; pH 7.4 PBS, 150 W Xenon lamp irradiation, 620 nm long-pass filter, 23° C., 1 μM dye): 0.00087 s⁻¹; Order of photostabilities ([10]; separate cuvettes, dye in PBS, Xenon lamp >620 nm): s775z>756z>UL766>ICG; Clearance from bloodstream ([11]; retro-orbital injection, live imaging over 2 hr): quickly cleared from the mouse bloodstream; Clearance pathway / biodistribution ([11]; sacrificed after 2 hours): accumulated in the intestines and liver
5 | CC1(C)C(/C=C/C2=C(Oc3ccc(CCC(=O)O)cc3)C(=C/C=C3/N(CCC[N+](C)(C)C)c4ccc(S(=O)(=O)O)cc4C3(C)C)/CCC2)=[N+](CCC[N+](C)(C)C)c2ccc(S(=O)(=O)O)cc21 [ZW800-1] |  |  |  | degradation | 0.135 | 33,000 | 13.5% | 246,000 M^−1cm^−1 | 770 nm | 788 nm | No | 
